Drawing on patent publication US20220259202A1, “1-(4-(AMINOMETHYL)BENZYL)-2-BUTYL-2H-PYRAZOLO[3,4-C]QUINOLIN-4-AMINE DERIVATIVES AND RELATED COMPOUNDS AS TOLL-LIKE RECEPTOR (TLR) 7/8 AGONISTS, AS WELL AS ANTIBODY DRUG CONJUGATES THEREOF FOR USE IN CANCER THERAPY AND DIAGNOSIS” (SUTRO BIOPHARMA, INC., priority 2019, published 2022), this text covers EC50 for two compounds.

SMILES strings stand for the structures.

For one assay, the target named is T1, human TLR9 (Homo sapiens, UniProt Q9NR96).
T1 construct: host or cells: HEK293
T1 sequence (Q9NR96 26-1032): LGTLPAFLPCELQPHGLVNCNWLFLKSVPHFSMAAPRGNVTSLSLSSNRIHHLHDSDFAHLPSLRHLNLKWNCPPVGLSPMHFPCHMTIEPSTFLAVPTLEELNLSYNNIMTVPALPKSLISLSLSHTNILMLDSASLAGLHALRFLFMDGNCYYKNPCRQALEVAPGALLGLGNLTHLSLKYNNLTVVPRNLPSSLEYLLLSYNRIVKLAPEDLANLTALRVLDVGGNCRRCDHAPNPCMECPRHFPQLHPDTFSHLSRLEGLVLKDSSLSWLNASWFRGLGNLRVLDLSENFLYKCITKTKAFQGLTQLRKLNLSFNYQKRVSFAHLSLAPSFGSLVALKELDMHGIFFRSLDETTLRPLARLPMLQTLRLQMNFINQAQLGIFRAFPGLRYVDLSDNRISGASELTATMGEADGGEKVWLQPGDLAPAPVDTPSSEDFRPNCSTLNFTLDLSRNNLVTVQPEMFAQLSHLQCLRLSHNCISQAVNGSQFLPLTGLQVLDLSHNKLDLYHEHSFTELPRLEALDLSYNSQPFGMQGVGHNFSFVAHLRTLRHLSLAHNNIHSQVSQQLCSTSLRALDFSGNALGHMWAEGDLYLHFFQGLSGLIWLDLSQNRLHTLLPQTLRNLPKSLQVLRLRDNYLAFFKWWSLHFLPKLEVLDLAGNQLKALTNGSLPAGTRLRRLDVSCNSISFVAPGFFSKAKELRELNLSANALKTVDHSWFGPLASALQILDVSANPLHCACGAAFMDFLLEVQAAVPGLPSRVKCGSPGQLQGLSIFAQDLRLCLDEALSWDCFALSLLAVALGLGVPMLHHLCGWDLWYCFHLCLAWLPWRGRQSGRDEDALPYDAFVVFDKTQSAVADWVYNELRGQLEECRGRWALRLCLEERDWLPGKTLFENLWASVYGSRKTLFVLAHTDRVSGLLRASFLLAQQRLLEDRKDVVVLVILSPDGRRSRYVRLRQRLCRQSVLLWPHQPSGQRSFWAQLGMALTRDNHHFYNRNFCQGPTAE
Description: HEK293 SEAP reporter assay, other TLRs (Biological Example 3). Format: cell-based. To be noted: 16 hrs, up to 1 μM. The source says:
(§1) In this example, the activity of the Compound 1 to stimulate different human and mouse TLR pathways was investigated on HEK293 cells transfected with inducible SEAP (secreted embryonic alkaline phosphatase) reporter genes and also expressing different human TLRs (TLR2, TLR3, TLR4, TLR5, TLR7, TLR8, TLRS) or mouse TLRs (TLR2, TLR3, TLR4, TLR5, TLR7, TLR8, TLR13). Compound A
(§2) HEK293 reporter cell lines were purchased from Invivogen and cell lines were maintained in manufacture recommended culture medium with required supplemental antibiotics. On the day of assay, the cells were harvested with Accutase and counted by the Vi-CELL Cell Viability Analyzers. Cells were re-suspended in HEK blue detection medium and a total of 10000 cells were seeded in each well of a 384-well flat bottom plate. […] Assay plates were cultured at 37° C. in a CO2 incubator for 16 hrs. HEK-Blue™ Detection medium changes to a purple/blue color in the presence of secreted SEAP, which can be detected by spectrophotometry at 620-655 nm. Data was fitted with non-linear regression analysis, using a log(inhibitor) vs. response-variable slope, 3-parameter fit with GraphPad Prism.

In the next assay the target is T2, human TLR3 (Homo sapiens, UniProt O15455).
T2 construct: host or cells: HEK293
T2 sequence (O15455 24-904): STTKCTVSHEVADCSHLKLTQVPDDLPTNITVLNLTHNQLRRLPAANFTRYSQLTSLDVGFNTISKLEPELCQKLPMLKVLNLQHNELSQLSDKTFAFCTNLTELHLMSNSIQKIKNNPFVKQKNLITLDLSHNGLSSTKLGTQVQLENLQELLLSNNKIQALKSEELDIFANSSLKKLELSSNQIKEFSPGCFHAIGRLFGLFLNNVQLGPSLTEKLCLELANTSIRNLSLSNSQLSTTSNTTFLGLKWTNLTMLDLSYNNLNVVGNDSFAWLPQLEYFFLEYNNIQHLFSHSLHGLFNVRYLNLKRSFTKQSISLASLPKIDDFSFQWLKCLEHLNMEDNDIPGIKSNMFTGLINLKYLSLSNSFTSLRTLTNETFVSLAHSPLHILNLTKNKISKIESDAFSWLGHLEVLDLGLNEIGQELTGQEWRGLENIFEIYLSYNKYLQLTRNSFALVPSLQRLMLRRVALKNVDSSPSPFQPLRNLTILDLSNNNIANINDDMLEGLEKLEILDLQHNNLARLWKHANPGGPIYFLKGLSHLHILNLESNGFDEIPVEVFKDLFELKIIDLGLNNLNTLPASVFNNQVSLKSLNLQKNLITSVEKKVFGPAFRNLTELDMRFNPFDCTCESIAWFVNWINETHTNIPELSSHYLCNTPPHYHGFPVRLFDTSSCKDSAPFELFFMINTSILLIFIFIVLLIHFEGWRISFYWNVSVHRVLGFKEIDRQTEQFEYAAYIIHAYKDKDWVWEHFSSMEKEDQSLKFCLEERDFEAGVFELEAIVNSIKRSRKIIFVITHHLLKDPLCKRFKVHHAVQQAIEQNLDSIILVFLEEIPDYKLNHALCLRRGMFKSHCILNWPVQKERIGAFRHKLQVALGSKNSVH
The assay is described as above. Format: cell-based. Conditions: 16 hrs, up to 1 μM.
Excerpt: as §1, §2

`CCCCc1nc2c(N)nc3ccccc3c2n1Cc1ccc(CN)cc1` [Compound A, reference compound]: the EC50 on human TLR9 and at human TLR3 was above 1000 nM in each case.
Take `CCCCn1nc2c(N)nc3ccccc3c2c1Cc1ccc(CN)cc1` [Compound 1, 1-(4-(aminomethyl)benzyl)-2-butyl-2H-pyrazolo[3,4-c]quinolin-4-amine]: the EC50 at human TLR9 and at human TLR3 was above 1000 nM in each case.
